According to ChEMBL document CHEMBL1201862, “PubChem BioAssay data set” (2004):
Values belong to the molecule of their own block, whether it stands above or below them. Calls of active or inactive are those of the source.

Experiments:
Exodeoxyribonuclease V = Exodeoxyribonuclease V (Escherichia coli (strain K12), UniProt P04993+P07648+P08394); experiment: RecBCD inhibition via phage-restricted bacterial growth – absorbance, V66 E. coli, mutant T4 phage, counter-screen for AddAB inhibitor project, dose response (AID 492957); assay type: functional, cell-based, Escherichia coli str. K-12 substr. MG1655
[1] = viability loss of HPDE-C7K cells – cell-based, fluorescence, HTS, primary screen (AID 431); assay type: functional; conditions: Homo sapiens
[2] = system: Streptococcus sp. 'group A'; experiment: Streptococcus pyogenes SK(-)GAS viability under kanamycin – luminescence, BacTiterGlo, confirmation, counter-screen for streptokinase expression inhibitor project, dose response (AID 1900); assay type: functional, organism-based
[3] = Counterscreen for AddAB inhibitors: absorbance-based bacterial cell-based high throughput dose response assay for inhibitors of bacterial viability. [Related pubchem assays (depositor defined):AID435030, AID449728, AID449731, AID488942, AID488955, AID488956]; assay type: functional
Streptococcus = experiment: GAS UMAA2166 growth inhibition – luminescence, BacTiterGlo, counter-screen for streptokinase expression inhibitor project, dose response (AID 1915); assay type: functional, organism-based;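 also: potency for reduction of bacterial viability or growth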
[4] = HPDE-C7 pancreatic duct cell viability loss – fluorescence, HTS (AID 430); assay type: functional, cell-based; conditions: Homo sapiens
[5] = target: T1, Intestinal-type alkaline phosphatase (Homo sapiens, UniProt P09923); experiment: human intestinal alkaline phosphatase activators, dose response, biochemical, luminescence, uHTS hits (AID 463120); assay type: functional
[6] = target: T2, Alkaline phosphatase, tissue-nonspecific isozyme (Homo sapiens, UniProt P05186); experiment: activation of tissue-nonspecific alkaline phosphatase – biochemical, TNAP isozyme, human IAP uHTS hits, selectivity assay for human IAP activator project, dose response (AID 488886); assay type: functional;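 also: potency of compounds raising TNAP activity as a selectivity check on IAP activators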
T2 sequence (P05186 whole entry): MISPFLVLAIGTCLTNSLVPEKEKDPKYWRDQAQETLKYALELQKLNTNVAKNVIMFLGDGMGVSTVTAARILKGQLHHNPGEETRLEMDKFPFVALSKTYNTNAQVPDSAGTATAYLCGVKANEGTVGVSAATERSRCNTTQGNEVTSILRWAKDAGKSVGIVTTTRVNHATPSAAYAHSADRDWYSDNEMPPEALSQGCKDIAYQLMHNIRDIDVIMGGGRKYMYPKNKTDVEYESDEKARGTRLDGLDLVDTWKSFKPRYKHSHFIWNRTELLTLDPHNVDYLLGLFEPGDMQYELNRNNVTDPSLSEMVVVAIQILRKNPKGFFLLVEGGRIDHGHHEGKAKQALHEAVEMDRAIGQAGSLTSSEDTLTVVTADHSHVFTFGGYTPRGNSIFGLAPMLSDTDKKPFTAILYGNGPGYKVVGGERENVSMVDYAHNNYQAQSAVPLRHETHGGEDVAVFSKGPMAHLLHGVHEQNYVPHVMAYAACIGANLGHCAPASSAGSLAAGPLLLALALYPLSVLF

[7] = target: Intestinal-type alkaline phosphatase (Mus musculus, UniProt P24822); experiment: PubChem AID 488875; assay type: functional
[8] = Luminescence Cell-Based Dose Retest to Confirm Inhibitors of Cancer Stem Cells. [Related pubchem assays (depositor defined):AID2717, AID2721]; assay type: functional; conditions: Homo sapiens
[9] = target: T1, Intestinal-type alkaline phosphatase; experiment: activation of human intestinal alkaline phosphatase – biochemical, luminescent, uHTS hits, set 2, dose response (AID 488817); assay type: functional;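 also: potency of activators that raise enzyme activity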
[10] = target: T3, Nucleotide-binding oligomerization domain-containing protein 1 (Homo sapiens, UniProt Q9Y239); experiment: blockers of NOD1 pathway activity – revised, SAR follow-up (AID 2333); assay type: functional
T3 sequence (Q9Y239 whole entry): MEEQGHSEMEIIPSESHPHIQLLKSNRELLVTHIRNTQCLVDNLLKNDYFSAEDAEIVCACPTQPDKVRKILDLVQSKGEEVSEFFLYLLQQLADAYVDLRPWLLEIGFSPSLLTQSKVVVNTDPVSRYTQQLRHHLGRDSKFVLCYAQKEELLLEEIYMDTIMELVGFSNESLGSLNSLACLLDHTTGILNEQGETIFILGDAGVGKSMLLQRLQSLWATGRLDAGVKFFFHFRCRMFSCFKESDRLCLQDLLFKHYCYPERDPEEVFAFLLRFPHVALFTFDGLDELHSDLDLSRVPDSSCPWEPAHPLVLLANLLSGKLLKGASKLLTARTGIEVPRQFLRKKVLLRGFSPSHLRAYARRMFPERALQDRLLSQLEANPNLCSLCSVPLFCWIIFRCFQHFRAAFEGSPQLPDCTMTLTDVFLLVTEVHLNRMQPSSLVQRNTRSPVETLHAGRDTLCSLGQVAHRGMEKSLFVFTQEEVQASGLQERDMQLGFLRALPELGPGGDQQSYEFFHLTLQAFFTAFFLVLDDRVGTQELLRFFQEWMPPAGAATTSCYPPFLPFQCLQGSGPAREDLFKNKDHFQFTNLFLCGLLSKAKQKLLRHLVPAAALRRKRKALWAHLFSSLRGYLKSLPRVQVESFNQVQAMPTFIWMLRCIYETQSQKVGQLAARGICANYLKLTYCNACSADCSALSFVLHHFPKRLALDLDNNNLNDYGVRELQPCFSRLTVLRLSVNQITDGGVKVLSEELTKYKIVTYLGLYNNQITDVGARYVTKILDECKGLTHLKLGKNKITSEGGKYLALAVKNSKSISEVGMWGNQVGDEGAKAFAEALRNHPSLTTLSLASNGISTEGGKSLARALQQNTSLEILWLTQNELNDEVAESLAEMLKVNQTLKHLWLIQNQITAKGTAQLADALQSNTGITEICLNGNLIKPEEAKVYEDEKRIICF

Tumor necrosis factor [11] = target: T4, Tumor necrosis factor (Homo sapiens, UniProt P01375); experiment: analog potency on TNFa NF-kB signaling – cell-based, revised, SAR follow-up (AID 2337); assay type: functional
[12] = target: T5, Nucleotide-binding oligomerization domain-containing protein 2 (Homo sapiens, UniProt Q9HC29); experiment: PubChem AID 2334; assay type: functional
HEK293 [13] = experiment: cells; conditions: Homo sapiens
Cytochrome P450 2D6 = Cytochrome P450 2D6 (Homo sapiens, UniProt P10635);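 also: CYP2D6 member of a cytochrome P450 panel assay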
Mu-type opioid receptor [14] = target: T6, Mu-type opioid receptor (Homo sapiens, UniProt P35372); experiment: mu opioid receptor blockers – image-based, SAR follow-up (AID 2420); assay type: functional;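 also: compounds added before stimulation of receptor with agonist DAMGO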
[15] = target: T7, Kappa-type opioid receptor (Homo sapiens, UniProt P41145); experiment: kappa opioid receptor blockers, image-based, SAR follow-up (AID 2348); assay type: functional
Mu-type opioid receptor [16] = target: T6, Mu-type opioid receptor; experiment: mu opioid receptor activators, image-based, SAR follow-up (AID 2352); assay type: functional
[17] = target: T7, Kappa-type opioid receptor; experiment: kappa opioid receptor blockers, cell-based, luminescence, beta-arrestin, SAR follow-up (AID 2285); assay type: functional
[18] = target: T8, Delta-type opioid receptor (Homo sapiens, UniProt P41143); experiment: delta opioid receptor blockers – image-based, SAR follow-up (AID 2357); assay type: functional
[19] = target: T7, Kappa-type opioid receptor; experiment: kappa opioid receptor activation potency – imaging, image-based, SAR follow-up (AID 2359); assay type: functional
[20] = target: T8, Delta-type opioid receptor; experiment: DOR agonists, SAR follow-up, image-based (AID 2370); assay type: functional
[21] = target: T5, Nucleotide-binding oligomerization domain-containing protein 2; experiment: inhibition of MDP-driven NOD2 NF-kB reporter – cell-based, set 3, SAR follow-up (AID 2799); assay type: functional
Interleukin-8 [22] = target: T9, Interleukin-8 (Homo sapiens, UniProt P10145); experiment: SAR analysis of Tumor necrosis factor alpha (TNF-alpha) induced IL-8 secretion in MCF-7/NOD1 cells - Set 2. [Related pubchem assays (depositor defined):AID1575, AID2250, AID2260]; assay type: functional, cell-based
[23] = target: T5, Nucleotide-binding oligomerization domain-containing protein 2; experiment: inhibition of NOD2 signaling – set 2, SAR follow-up (AID 2475); assay type: functional
[24] = target: T3, Nucleotide-binding oligomerization domain-containing protein 1; experiment: SAR analysis of NF-kappaB dependent luciferase using DAP as an inducer - Set 2. [Related pubchem assays (depositor defined):AID1566, AID1575, AID1578, AID1579, AID1849, AID1852, AID2264]; assay type: functional
Interleukin-8 [25] = target: T9, Interleukin-8; experiment: SAR analysis of GM-Tri-DAP induced IL-8 secretion in MCF-7/NOD1 cells - Set 2. [Related pubchem assays (depositor defined):AID1575, AID1578, AID2333]; assay type: functional, cell-based
[26] = target: T3, Nucleotide-binding oligomerization domain-containing protein 1; experiment: SAR analysis of compounds that inhibit NOD1 - Set 3. [Related pubchem assays (depositor defined):AID1566, AID1575, AID1578, AID1849, AID1852, AID2333, AID2335, AID2466]; assay type: functional
HEK293 [27] = experiment: SAR analysis of compounds that are cytotoxic to HEK293 - Set 3. [Related pubchem assays (depositor defined):AID1575, AID1578, AID1848, AID1849, AID2001, AID2333, AID2334, AID2335, AID2337, AID2469]; assay type: functional, cell-based; conditions: Homo sapiens
HEK293 [28] = experiment: SAR analysis of compounds that are cytotoxic to HEK293 - Set 2. [Related pubchem assays (depositor defined):AID1575, AID1578, AID1849, AID2001, AID2333, AID2334, AID2335, AID2337, AID2800]; assay type: functional, cell-based; conditions: Homo sapiens
Tumor necrosis factor [29] = target: T4, Tumor necrosis factor; experiment: analog potency on TNFa NF-kB signaling – cell-based, set 3, SAR follow-up (AID 2801); assay type: functional
[30] = target: Sphingosine 1-phosphate receptor 3 (Homo sapiens, UniProt Q99500); experiment: Late stage counterscreen assay for S1P4 antagonists: Fluorescence dose response cell-based screening assay for antagonists of the Sphingosine 1-Phosphate Receptor 3 (S1P3). [Related pubchem assays (depositor defined):AID1510, AID1524, AID1692, AID1853, AID2332, AID489009, AID489017]; assay type: functional
[31] = target: Sphingosine 1-phosphate receptor 1 (Homo sapiens, UniProt P21453); experiment: Late stage counterscreen assay for S1P4 antagonists: Fluorescence dose response cell-based screening assay for antagonists of the Sphingosine 1-Phosphate Receptor 1 (S1P1). [Related pubchem assays (depositor defined):AID1510, AID1524, AID1692, AID1853, AID2332, AID489009, AID489017]; assay type: functional
[32] = target: Sphingosine 1-phosphate receptor 2 (Homo sapiens, UniProt O95136); experiment: Late stage counterscreen assay for S1P4 antagonists: Fluorescence dose response cell-based screening assay for antagonists of the Sphingosine 1-Phosphate Receptor 2 (S1P2). [Related pubchem assays (depositor defined):AID1510, AID1524, AID1692, AID1853, AID2332, AID489009, AID489017]; assay type: functional
[33] = target: Sphingosine 1-phosphate receptor 5 (Homo sapiens, UniProt Q9H228); experiment: Late stage counterscreen assay for S1P4 antagonists: Fluorescence dose response cell-based screening assay for antagonists of the Sphingosine 1-Phosphate Receptor 5 (S1P5). [Related pubchem assays (depositor defined):AID1510, AID1524, AID1692, AID1853, AID2332, AID489009, AID489017]; assay type: functional
Chain of Sphingosine 1-phosphate receptor 5 (Q9H228 whole entry): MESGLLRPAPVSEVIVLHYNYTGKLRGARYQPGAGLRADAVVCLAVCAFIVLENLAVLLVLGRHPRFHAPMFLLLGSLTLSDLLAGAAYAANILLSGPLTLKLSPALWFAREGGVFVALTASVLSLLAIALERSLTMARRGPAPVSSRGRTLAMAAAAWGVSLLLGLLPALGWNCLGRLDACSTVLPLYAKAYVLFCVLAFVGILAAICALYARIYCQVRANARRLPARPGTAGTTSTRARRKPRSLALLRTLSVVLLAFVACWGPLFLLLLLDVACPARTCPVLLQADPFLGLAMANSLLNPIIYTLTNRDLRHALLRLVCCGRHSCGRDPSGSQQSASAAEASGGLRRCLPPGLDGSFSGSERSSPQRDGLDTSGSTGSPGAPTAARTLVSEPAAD

T5 sequence (Q9HC29 whole entry, the tested form may be a part): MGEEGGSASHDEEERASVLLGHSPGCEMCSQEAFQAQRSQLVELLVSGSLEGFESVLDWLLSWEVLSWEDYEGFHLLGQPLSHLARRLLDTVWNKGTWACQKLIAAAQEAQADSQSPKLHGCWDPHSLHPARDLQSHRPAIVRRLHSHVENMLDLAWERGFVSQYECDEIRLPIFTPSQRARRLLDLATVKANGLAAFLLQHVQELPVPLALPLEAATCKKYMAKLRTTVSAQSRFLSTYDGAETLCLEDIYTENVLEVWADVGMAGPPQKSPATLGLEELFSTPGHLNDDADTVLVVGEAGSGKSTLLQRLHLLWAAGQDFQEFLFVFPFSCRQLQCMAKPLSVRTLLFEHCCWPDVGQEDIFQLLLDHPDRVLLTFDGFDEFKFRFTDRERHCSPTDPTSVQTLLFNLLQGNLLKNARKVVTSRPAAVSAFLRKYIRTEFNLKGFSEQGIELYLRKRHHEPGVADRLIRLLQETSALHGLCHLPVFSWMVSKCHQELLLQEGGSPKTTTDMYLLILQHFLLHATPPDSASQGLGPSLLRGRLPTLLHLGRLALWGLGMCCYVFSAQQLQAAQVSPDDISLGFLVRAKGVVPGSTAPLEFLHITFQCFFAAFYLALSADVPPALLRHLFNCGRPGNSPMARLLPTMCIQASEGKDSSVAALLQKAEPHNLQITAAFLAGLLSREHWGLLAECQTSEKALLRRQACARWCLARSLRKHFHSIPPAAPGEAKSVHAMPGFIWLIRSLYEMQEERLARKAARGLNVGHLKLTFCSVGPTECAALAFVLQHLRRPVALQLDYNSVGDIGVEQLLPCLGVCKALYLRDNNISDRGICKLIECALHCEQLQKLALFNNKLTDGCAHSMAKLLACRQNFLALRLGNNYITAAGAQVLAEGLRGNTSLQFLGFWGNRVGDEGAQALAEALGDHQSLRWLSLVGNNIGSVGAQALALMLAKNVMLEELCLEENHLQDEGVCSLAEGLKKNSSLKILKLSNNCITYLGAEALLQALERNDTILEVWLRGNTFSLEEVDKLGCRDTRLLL
T7 sequence (P41145 whole entry): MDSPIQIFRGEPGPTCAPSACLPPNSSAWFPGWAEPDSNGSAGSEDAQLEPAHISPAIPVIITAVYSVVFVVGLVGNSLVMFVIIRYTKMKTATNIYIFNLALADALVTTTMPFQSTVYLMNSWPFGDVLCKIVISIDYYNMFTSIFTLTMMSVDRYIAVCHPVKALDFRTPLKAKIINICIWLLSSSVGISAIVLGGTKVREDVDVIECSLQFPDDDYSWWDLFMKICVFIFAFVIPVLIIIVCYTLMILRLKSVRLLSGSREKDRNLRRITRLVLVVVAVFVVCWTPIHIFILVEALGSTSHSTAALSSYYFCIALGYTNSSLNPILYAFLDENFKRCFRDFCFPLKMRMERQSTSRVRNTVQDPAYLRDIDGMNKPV
T9 sequence (P10145 whole entry, the tested form may be a part): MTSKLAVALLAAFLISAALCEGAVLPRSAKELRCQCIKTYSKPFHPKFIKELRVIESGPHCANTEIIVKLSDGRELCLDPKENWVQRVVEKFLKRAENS
T4 sequence (P01375 whole entry, the tested form may be a part): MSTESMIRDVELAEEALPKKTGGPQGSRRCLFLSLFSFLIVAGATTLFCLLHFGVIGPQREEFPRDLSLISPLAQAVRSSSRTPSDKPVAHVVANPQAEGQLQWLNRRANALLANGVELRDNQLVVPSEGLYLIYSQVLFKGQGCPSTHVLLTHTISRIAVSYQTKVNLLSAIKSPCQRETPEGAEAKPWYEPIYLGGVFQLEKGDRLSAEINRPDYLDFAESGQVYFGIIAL
T6 sequence (P35372 whole entry): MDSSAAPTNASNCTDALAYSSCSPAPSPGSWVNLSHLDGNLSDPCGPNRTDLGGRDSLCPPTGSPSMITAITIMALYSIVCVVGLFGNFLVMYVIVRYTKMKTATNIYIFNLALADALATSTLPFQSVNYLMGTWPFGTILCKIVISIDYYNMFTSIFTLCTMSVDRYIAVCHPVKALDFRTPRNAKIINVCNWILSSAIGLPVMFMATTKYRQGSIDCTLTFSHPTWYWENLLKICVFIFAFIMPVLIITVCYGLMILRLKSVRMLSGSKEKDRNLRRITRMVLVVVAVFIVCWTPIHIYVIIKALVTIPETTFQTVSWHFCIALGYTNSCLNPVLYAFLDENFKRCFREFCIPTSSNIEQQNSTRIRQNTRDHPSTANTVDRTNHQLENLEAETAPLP
T8 sequence (P41143 whole entry): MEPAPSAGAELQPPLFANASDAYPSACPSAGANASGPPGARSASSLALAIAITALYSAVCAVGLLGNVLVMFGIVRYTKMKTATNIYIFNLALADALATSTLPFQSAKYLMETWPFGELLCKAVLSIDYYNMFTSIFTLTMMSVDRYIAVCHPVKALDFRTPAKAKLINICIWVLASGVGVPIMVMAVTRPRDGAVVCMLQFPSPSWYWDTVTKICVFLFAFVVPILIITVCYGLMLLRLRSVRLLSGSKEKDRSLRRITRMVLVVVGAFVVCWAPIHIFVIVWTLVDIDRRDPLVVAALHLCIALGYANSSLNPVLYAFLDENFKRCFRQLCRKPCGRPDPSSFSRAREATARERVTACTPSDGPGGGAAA
T1 sequence (P09923 whole entry): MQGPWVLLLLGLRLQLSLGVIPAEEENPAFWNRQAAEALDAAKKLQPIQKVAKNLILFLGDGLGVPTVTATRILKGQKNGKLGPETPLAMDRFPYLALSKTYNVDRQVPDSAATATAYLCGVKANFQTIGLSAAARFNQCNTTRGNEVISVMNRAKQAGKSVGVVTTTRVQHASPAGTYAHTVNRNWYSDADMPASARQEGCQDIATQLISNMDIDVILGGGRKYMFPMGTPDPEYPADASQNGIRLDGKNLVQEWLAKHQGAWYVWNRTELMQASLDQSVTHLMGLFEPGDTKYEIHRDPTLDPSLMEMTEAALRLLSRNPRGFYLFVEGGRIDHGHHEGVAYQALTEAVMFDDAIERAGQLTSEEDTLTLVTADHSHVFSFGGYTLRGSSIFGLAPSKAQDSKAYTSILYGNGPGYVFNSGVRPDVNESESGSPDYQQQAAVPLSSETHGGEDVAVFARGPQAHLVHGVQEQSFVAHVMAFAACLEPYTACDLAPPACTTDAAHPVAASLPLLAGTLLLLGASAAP
Chain of Sphingosine 1-phosphate receptor 3 (Q99500 whole entry): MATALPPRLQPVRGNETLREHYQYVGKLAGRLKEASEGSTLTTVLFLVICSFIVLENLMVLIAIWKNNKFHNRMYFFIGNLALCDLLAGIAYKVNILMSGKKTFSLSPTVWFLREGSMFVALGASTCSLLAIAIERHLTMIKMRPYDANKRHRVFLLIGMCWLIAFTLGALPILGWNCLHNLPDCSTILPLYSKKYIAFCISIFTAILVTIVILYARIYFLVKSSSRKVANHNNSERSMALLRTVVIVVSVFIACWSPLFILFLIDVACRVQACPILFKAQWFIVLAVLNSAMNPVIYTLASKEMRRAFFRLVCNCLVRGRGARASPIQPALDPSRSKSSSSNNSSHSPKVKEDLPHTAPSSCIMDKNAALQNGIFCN
Chain of Sphingosine 1-phosphate receptor 1 (P21453 whole entry): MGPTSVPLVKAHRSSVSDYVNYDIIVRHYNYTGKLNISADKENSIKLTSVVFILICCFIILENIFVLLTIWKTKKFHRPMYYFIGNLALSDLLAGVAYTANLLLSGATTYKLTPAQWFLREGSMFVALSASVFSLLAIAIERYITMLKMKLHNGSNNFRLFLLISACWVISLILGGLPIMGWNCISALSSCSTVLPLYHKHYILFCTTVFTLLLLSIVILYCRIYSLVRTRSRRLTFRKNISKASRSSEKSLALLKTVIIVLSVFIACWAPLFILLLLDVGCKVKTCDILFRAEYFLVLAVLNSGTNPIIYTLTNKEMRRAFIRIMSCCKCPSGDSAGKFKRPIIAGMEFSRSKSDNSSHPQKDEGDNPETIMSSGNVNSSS
Chain of Cytochrome P450 2D6 (P10635 whole entry): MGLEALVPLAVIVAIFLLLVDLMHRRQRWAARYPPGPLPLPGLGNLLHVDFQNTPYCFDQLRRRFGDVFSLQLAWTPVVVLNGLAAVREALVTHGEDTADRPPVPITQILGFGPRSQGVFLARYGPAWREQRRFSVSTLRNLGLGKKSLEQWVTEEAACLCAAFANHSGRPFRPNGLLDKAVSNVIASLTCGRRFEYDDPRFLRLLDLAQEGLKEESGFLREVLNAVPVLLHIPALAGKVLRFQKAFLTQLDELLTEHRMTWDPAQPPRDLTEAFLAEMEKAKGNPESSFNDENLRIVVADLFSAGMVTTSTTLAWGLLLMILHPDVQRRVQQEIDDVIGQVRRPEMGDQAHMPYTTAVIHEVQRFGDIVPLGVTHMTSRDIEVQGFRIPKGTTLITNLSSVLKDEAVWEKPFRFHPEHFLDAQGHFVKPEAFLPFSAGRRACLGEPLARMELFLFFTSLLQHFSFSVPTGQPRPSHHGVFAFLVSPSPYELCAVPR

Compound: O=C(Nc1nnc(-c2ccccc2)o1)c1ccc(Cl)cc1
IC50 (Exodeoxyribonuclease V): 44.2 µM (inactive)
EC50 [1]: 3.15 µM (active)
EC50 [2]: 0.26 µM (active)
IC50 [3]: 47 µM (inactive)
EC50 (Streptococcus): 0.67 µM (active)
EC50 [4]: 3.14 µM (active)

Compound: Cc1ccc(-c2cc(C(=O)N/N=C/c3ccccc3O)[nH]n2)o1
EC50 [5]: 5.71 µM (active)
EC50 [6]: 3.89 µM (active)
EC50 [7]: > 100 µM (inactive)
AC50 [8]: 8.36 µM (active)
EC50 [9]: 6.54 µM (active)

Compound: CC(=O)Nc1nc2ccccc2n1S(=O)(=O)c1ccc(C)cc1
IC50 [10]: 3.8 µM (active)
IC50 (Tumor necrosis factor [11]): > 20 µM (inactive)
IC50 [12]: > 20 µM (inactive)
IC50 (HEK293 [13]): > 20 µM (inactive)

AC50 (Cytochrome P450 2D6): inconclusive
Compound: Cc1cn([C@H]2C[C@H](O)[C@@H](COC(N)=O)O2)c(=O)[nH]c1=O

IC50 (Mu-type opioid receptor [14]): > 32 µM (inactive)
IC50 [15]: > 32 µM (inactive)
EC50 (Mu-type opioid receptor [16]): > 32 µM (inactive)
IC50 [17]: > 10 µM (inactive)
IC50 [18]: > 32 µM (inactive)
EC50 [19]: > 32 µM (inactive)
EC50 [20]: > 32 µM (inactive)
Compound: O=C(NC(NC(=S)Nc1cccc(Br)c1)C(Cl)(Cl)Cl)OCc1ccccc1 (stereo unspecified)

Compound: C/C=C/Cn1c(SCc2ccccc2)nc2c1c(=O)[nH]c(=O)n2C
IC50 [21]: > 20 µM (inactive)
IC50 (Interleukin-8 [22]): > 25 µM (inactive)
IC50 [23]: > 20 µM (inactive)
IC50 [24]: > 25 µM (inactive)
IC50 (Interleukin-8 [25]): > 25 µM (inactive)
IC50 [26]: 18.6 µM (active)
IC50 (HEK293 [27]): > 20 µM (inactive)
IC50 (HEK293 [28]): > 20 µM (inactive)
IC50 (Tumor necrosis factor [29]): > 20 µM (inactive)

IC50 [30]: 9.87 µM (active)
IC50 [31]: 9.31 µM (active)
IC50 [32]: 4.77 µM (active)
IC50 [33]: 11.2 µM (inactive)
Compound: COc1cccc(C)c1NC(=O)c1ccc(-c2cc(Cl)ccc2Cl)o1
